Earlier results in US20190250088A1, “Methods and Apparatus for Predicting and Confirming Drug-Induced Thrombocytopenia Through Particle Detection with Dynamic Light Scattering” (LightIntegra Technology Inc., priority 2018, published 2019).

Details: patients recently exposed to heparin; background statement

Row | Substance | HIT occurs in patients receiving the drug (incidence of heparin-induced thrombocytopenia)
1 | low molecular weight heparin [low molecular weight heparin (LMWH)] | < 1%
2 | unfractionated heparin [unfractionated heparin (UFH)] | up to 5%
